The text below walks through data of patent US20240376436A1, “COMPOSITIONS AND METHODS FOR BIASING THE POLARITY OF ORGANOIDS” (STEMCELL TECHNOLOGIES CANADA INC., priority 2021, published 2024).

Test [1] concerns apical-out organoids formed from human bronchial epithelial cells. Kind of test: Counting ciliated cells among dissociated apical-out airway organoids. The following applies: FIG. 3; for percentage of ciliated cells: first donor, highest concentrations of the titrated inhibitor in the organoid medium. The class given is cell-based. As to the method:
Cells were cultured and dissociated in accordance with Example 1, and seeded into Aggrewell™ 400 plates (STEMCELL Technologies) that were prepared in accordance with Example 2. Aggregates were generated by seeding roughly 1.2×10^5 cells per well (100 cells per microwell) of an Aggrewell™ 400 plate. The cells were seeded in 500 μL of apical-out organoid medium comprising a basal medium and an inhibitor of notch signaling. The AggreWell™ plate was centrifuged for 3 min at 100 g in order to sediment the cells to the bottom of the microwell. The plates were then incubated for 24 h to 144 h at 37° C. and 5% CO2.
(§1) After the aggregates were formed and sufficiently matured in accordance with Example 3, 500 μL of fresh apical-out airway organoid medium was added to each well. The aggregates were then resuspended using a P1000 pipette and each well distributed to two wells of a 24-well plate (prepared as described in Example 2). The aggregates were incubated under non-adherent conditions in apical-out airway organoid medium for up to 15 days. A partial medium change was performed every second day.
Apical-out airway organoids formed in accordance with Example 4 were harvested on day 15, transferred to a 15 ml tube, and centrifuged at 150 g for 5 min. The supernatant was removed, and the organoids were washed once with DMEM. The washed organoids were resuspended in ACCUTASE (STEMCELL Technologies) and were incubated for 15 minutes at room temperature, before being dissociated to single cells by pipetting vigorously with a P1000 pipette. The single-cell suspension was diluted 1:1 with trypan blue and was then loaded to a Hemocytometer where the cells were counted manually. At the time the dissociated cells are counted, the number of ciliated cells can also be determined by visual inspection.
In one experiment, apical-out organoids were formed from two donor samples in apical-out media formulated with different concentrations of an inhibitor of notch signaling and an inhibitor of TGFbeta signaling. […]

Test [2] has as its system apical-out organoids generated from passage 6 pulmonary lineage cells. Kind of test: Imaging of ciliation of apical-out organoids. The class given is cell-based, human. The following applies: passage 6 cells; medium comprising an inhibitor of TGFbeta signaling and Y-27632; FIG. 7A. The protocol: as §1
Fully mature organoids, formed in accordance with Example 4, were imaged using a standard microscope camera. For example, the organoids may be imaged using a Leica DMi8 or an EVOS M500.
Representative images of apical-out organoids generated from passage 6 pulmonary lineage cells from a donor are shown in FIG. 7.

As to `Cc1cccc(-c2[nH]ncc2-c2ccnc3ccccc23)n1` [A77-01], in test [1], the “percentage of ciliated cells” value is “decreased percentage of ciliated cells”. Also, in test [1] (second donor, lower concentrations in the organoid medium), the “emergence of ciliated cells” value is reported as “detrimental to the emergence of ciliated cells”.
For the compound `C[C@H](NC(=O)Cc1cc(F)cc(F)c1)C(=O)N[C@H](C(=O)OC(C)(C)C)c1ccccc1` [DAPT], the “percentage of ciliated cells” value in test [1] is “decreased percentage of ciliated cells”.
Regarding `C[C@@H](N)[C@H]1CC[C@H](C(=O)Nc2ccncc2)CC1` [Y-27632], the “ciliation of organoids (representative images)” value in test [2] was “patchy ciliation”.
